The record followed here is patent publication US8148370B2, “Polysubstituted derivatives of 2-aryl-6-phenyl-imidazo[1,2-a]pyridines, and preparation and therapeutic use thereof” (Sanofi-Aventis, priority 2008, dated 2012).

T1 sequence (Q06219 whole entry): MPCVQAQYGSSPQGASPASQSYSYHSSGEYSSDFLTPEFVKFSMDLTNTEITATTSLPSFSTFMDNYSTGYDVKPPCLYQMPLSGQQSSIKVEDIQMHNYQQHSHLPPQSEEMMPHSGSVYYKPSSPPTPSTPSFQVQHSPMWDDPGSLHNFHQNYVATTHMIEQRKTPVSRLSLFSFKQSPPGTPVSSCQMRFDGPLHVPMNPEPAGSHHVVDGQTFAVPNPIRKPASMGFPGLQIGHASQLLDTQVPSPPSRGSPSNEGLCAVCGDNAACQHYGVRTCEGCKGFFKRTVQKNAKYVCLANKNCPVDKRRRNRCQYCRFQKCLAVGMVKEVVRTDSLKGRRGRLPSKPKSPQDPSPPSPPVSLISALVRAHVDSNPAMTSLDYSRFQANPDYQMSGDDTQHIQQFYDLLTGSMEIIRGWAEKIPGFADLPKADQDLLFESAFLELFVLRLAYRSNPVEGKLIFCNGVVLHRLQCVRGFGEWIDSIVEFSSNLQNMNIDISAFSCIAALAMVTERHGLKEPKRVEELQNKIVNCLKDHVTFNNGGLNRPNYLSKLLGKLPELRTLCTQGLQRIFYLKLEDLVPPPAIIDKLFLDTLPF

One data set has as its target T1, mouse Nurr1 receptor (Mus musculus, UniProt Q06219).
T1 construct: endogenously expressing the mouse Nurr1 receptor; host or cells: Neuro-2A (N2A) mouse neuroblastoma cells stably transfected with 8NBRE-luciferase
In words: Evaluation of the in vitro activity on N2A cells (NBRE-luciferase reporter). In kind it is cell-based. The conditions noted are these: N2A (Neuro-2A) cells stably transfected with 8NBRE-luciferase; products incubated 24 hours; luminescence. As for the experimental part: The compounds according to the invention have formed the subject of pharmacological assays which make it possible to determine their modulatory effect on NOT. Evaluation of the In Vitro Activity on N2A Cells The activity of the compounds according to the invention was evaluated on a cell line (N2A) endogenously expressing the mouse Nurr1 receptor and stably transfected with the NOT binding response element (NBRE) coupled to the luciferase reporter gene. The EC50 values are between 0.01 and 10 μM. The assays were carried out according to the procedure described below. The Neuro-2A cell line comes from a standard commercial source (ATCC). The Neuro-2A clone was obtained, from a spontaneous tumour originating from an A albino mouse strain, by R. J Klebe et al. This Neuro-2A line is subsequently stably transfected with 8NBRE-luciferase. The N2A-8NBRE cells are cultured until confluence in 75 cm^2 culture flasks containing DMEM supplemented with 10% of foetal calf serum, 4.5 g/l of glucose and 0.4 mg/ml of geneticin. After a week of culture, the cells are recovered with 0.25% trypsin for 30 seconds and then resuspended in DMEM without phenol red, containing 4.5 g/l of glucose and 10% of Hyclone delipidized serum, and deposited into transparent-bottom 96-well white plates. The cells are deposited at a rate of 60 000 per well in 75 μl for 24 hours before the addition of the products. The products are applied in 25 μl and incubated for a further 24 hours. On the day of the measurement, an equivalent volume (100 μl) of Steadylite is added to each well and then left for a period of 30 minutes in order to obtain complete cell lysis and maximum signal production. The plates are subsequently measured in a luminescence counter for microplates after having been sealed with an adhesive film. The products are prepared in the form of a stock solution at 10^−2M and then diluted in 100% of DMSO. Each product concentration is prediluted in culture medium before incubation with the cells, thus containing 0.625% final concentration of DMSO. […] It is thus apparent that the compounds according to the invention have a modulatory effect on NOT.
Background: A reporter such as luciferase makes a cellular process visible.
In general, EC50 refers to the concentration giving half of the maximal effect. Higher therefore signals lower potency in that assay. As for `CC(O)c1ccc(F)c(-c2ccc3nc(-c4ccc(Cl)cc4)cn3c2)c1` (single isomer, unassigned; (+)) [Compound 29, (+)-1-{3-[2-(4-Chlorophenyl)imidazo[1,2-a]pyridin-6-yl]-4-fluorophenyl}ethanol], the EC50 stood at 0.1 nM.
`OCc1c(F)ccc(-c2ccc3nc(-c4ccc(Cl)cc4)cn3c2)c1F` [Compound 3, {3-[2-(4-Chlorophenyl)imidazo[1,2-a]pyridin-6-yl]-2,6-difluorophenyl}methanol] returned an EC50 of 0.5 nM.
Same read-out and setting: in the case of `OC1CCCc2ccc(-c3ccc4nc(-c5ccc(Cl)cc5)cn4c3)cc21` (centres unmarked) [Compound 8, 7-[2-(4-Chlorophenyl)imidazo[1,2-a]pyridin-6-yl]-1,2,3,4-tetrahydronaphth-1-ol] it was 42 nM; in that of `OCc1cc(-c2ccc3nc(-c4ccc(Cl)cc4)cn3c2)ccc1F` [Compound 11, {5-[2-(4-Chlorophenyl)imidazo[1,2-a]pyridin-6-yl]-2-fluorophenyl}methanol], 7.5 nM; in that of `COc1cccc(-c2cn3cc(-c4ccc(CO)c(F)c4)ccc3n2)c1` [Compound 17, {2-Fluoro-4-[2-(3-methoxyphenyl)imidazo[1,2-a]pyridin-6-yl]phenyl}methanol], 93 nM.
Regarding `COc1cccc(-c2cn3cc(-c4cc(C(C)(C)O)ccc4F)ccc3n2)c1` [Compound 33, 2-{4-Fluoro-3-[2-(3-methoxyphenyl)imidazo[1,2-a]pyridin-6-yl]phenyl}propan-2-ol], the EC50 is 25 nM.
Same read-out and setting: for `COCc1c(F)ccc(-c2ccc3nc(-c4ccc(C)cc4)cn3c2)c1F` [Compound 37, 6-(2,4-Difluoro-3-methoxymethylphenyl)-2-(p-tolyl)imidazo[1,2-a]pyridine] the value was 74 nM.
For `O=[N+]([O-])c1ccc(-c2cn3cc(-c4cccc(F)c4CO)ccc3n2)cc1` [Compound 38, {2-Fluoro-6-[2-(4-nitrophenyl)imidazo[1,2-a]pyridin-6-yl]phenyl}methanol], the midpoint of the response, the EC50, lay at 211 nM.
`OCc1c(F)ccc(-c2ccc3nc(-c4cccc(Br)c4)cn3c2)c1F` [Compound 42, {3-[2-(3-Bromophenyl)imidazo[1,2-a]pyridin-6-yl]-2,6-difluorophenyl}methanol] had an EC50 of 1 nM.

Test system in a further data set: not given
Experiment: not given
Details: not given
One may read the melting point as the temperature, or range, at which the solid turns liquid. `CC(O)c1cccc(-c2ccc3nc(-c4ccc(Cl)cc4)cn3c2)c1F` (centres unmarked) [Compound 2, 1-{3-[2-(4-Chlorophenyl)imidazo[1,2-a]pyridin-6-yl]-2-fluorophenyl}ethanol] had a melting point of 193 to 195 °C.
Turning to `OCc1c(F)ccc(-c2ccc3nc(-c4ccc(Cl)cc4)cn3c2)c1F` [Compound 3, {3-[2-(4-Chlorophenyl)imidazo[1,2-a]pyridin-6-yl]-2,6-difluorophenyl}methanol], the melting point lay in the range of 214 to 216 °C.
